Experimental data: ChEMBL document CHEMBL1150433, “Synthesis and activity of conformationally-constrained macrocyclic norstatine-based inhibitors of HIV protease” (Bioorg Med Chem Lett, 1996)

Experiments:
[1] = molecular target: Human immunodeficiency virus type 1 protease (Human immunodeficiency virus 1, UniProt Q72874); test: Compound was evaluated for the inhibition of HIV protease
[2] = system: MT2; test: Antiviral activity against […] RF infected MT-2 cells; type: functional, cell-based; details: Homo sapiens

| Structure (SMILES) | IC50 [1] [nM] | EC50 [2] [nM] |
| --- | --- | --- |
| CC(C)(C)NC(=O)[C@@H]1CCCN1C(=O)[C@H](O)[C@@H]1Cc2ccc(cc2)OCCCOc2cc3ccccc3cc2C(=O)N[C@@H](CC(N)=O)C(=O)N1 | 3800 | – |
| CC(C)(C)OC(=O)[C@@H]1CCCN1C[C@@H](O)[C@H](Cc1ccccc1)NC(=O)[C@H](CC(N)=O)NC(=O)c1ccc2ccccc2n1 | 23 | – |
| CC(C)(C)NC(=O)[C@@H]1CCCN1C(=O)[C@@H](O)[C@@H]1Cc2ccc(cc2)OCCCOc2cc3ccccc3cc2C(=O)N[C@@H](CC(N)=O)C(=O)N1 | 19 | 76 |
